Assay results published in PubChem BioAssay (NCI).
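The compound was tested at five concentrations on cells cultured in 96-well plates, with a 48-hour exposure period. TGI marks complete inhibition of growth.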

How the values were obtained:
Test in all cases: NCI-60 cell line screen, 48 h
TK-10 renal = test system: TK-10 renal
PC-3 prostate = test system: PC-3 prostate
HCT-15 colon = test system: HCT-15 colon
HCT-116 colon = test system: HCT-116 colon
MCF7 breast = test system: MCF7 breast
KM12 colon = test system: KM12 colon
COLO 205 colon = test system: COLO 205 colon
U251 CNS = test system: U251 CNS
CAKI-1 renal = test system: CAKI-1 renal
SK-MEL-2 melanoma = test system: SK-MEL-2 melanoma
OVCAR-5 ovarian = test system: OVCAR-5 ovarian
UACC-257 melanoma = test system: UACC-257 melanoma
HT29 colon = test system: HT29 colon
A549 NSCLC = test system: A549 NSCLC
786-0 renal = test system: 786-0 renal
SK-OV-3 ovarian = test system: SK-OV-3 ovarian
NCI-H460 lung = test system: NCI-H460 lung
EKVX NSCLC = test system: EKVX NSCLC
OVCAR-4 ovarian = test system: OVCAR-4 ovarian

Which results are given for `O=c1cc(-c2ccccc2)[nH]c2cc(F)c(F)cc12`?
TGI (TK-10 renal): > 100 µM; TGI (PC-3 prostate): > 100 µM; TGI (HCT-15 colon): > 100 µM; TGI (HCT-116 colon): > 100 µM; TGI (MCF7 breast): > 71.9 µM; TGI (KM12 colon): > 100 µM; TGI (COLO 205 colon): 34.7 µM; TGI (U251 CNS): > 58.6 µM; TGI (CAKI-1 renal): > 100 µM; TGI (SK-MEL-2 melanoma): > 75.1 µM; TGI (OVCAR-5 ovarian): > 100 µM; TGI (UACC-257 melanoma): > 100 µM; TGI (HT29 colon): > 46.4 µM; TGI (A549 NSCLC): > 31.5 µM; TGI (786-0 renal): 4.18 µM; TGI (SK-OV-3 ovarian): > 56.1 µM; TGI (NCI-H460 lung): > 100 µM; TGI (EKVX NSCLC): > 100 µM; TGI (OVCAR-4 ovarian): > 100 µM
